CC(C)OC(=O)[C@H](C)N[P@](=O)(Oc1ccccc1)Oc1c(F)c(F)c(F)c(F)c1F
solubility (mole fraction)
Conditions | in acetone | in acetonitrile | in ethanol | in ethyl acetate | in isopropanol | in methanol | in n-butanol | in n-propanol | in toluene | in water
278.15 K | 0.00921 | 0.00297 | 0.0019 | 0.0073 | 0.00118 | 0.0023 | 0.000812 | 0.00144 | 0.00381 | 2.39e-05
283.15 K | 0.0111 | 0.0036 | 0.00234 | 0.00889 | 0.00156 | 0.0028 | 0.0011 | 0.00191 | 0.00469 | 3.23e-05
288.15 K | 0.0132 | 0.00439 | 0.00293 | 0.0108 | 0.00204 | 0.00347 | 0.00152 | 0.00246 | 0.00572 | 4.42e-05
293.15 K | 0.0159 | 0.00538 | 0.00366 | 0.0132 | 0.00265 | 0.00423 | 0.00198 | 0.00311 | 0.00696 | 6.06e-05
298.15 K | 0.019 | 0.00653 | 0.00451 | 0.0157 | 0.00343 | 0.00519 | 0.00267 | 0.0039 | 0.00848 | 7.96e-05
303.15 K | 0.0226 | 0.00787 | 0.00556 | 0.0191 | 0.00431 | 0.00632 | 0.00348 | 0.0049 | 0.0103 | 0.000106
308.15 K | 0.0268 | 0.00941 | 0.00686 | 0.0227 | 0.00545 | 0.00766 | 0.00463 | 0.00608 | 0.0125 | 0.000137
313.15 K | 0.0315 | 0.0113 | 0.00836 | 0.0269 | 0.00692 | 0.00927 | 0.00609 | 0.00748 | 0.0151 | 0.000182
318.15 K | 0.0371 | 0.0133 | 0.0101 | 0.032 | 0.00875 | 0.0111 | 0.00789 | 0.00927 | 0.0181 | 0.000235

Source: BigSolDB 2.1
